System: MCF-7 breast cancer cells
Test: Microarray gene expression analysis (Agilent whole human genome 4 x 44K; compound vs DMSO, LIMMA log2 fold change)
Assay type: cell-based
Details: Apoptosis genes

Oc1cccc(-c2nc(N3CCOCC3)c3oc4ncccc4c3n2)c1 [PI-103]
KALRN log2FC (Gene 8997): 0.194
SOCS3 log2FC (Gene 9021): -0.840
BRSK2 log2FC (Gene 9024): -0.160
UBE2M log2FC (Gene 9040): -0.417
SART1 log2FC (Gene 9092): -0.00235
DNAJA3 log2FC (Gene 9093): 0.121
RABEP1 log2FC (Gene 9135): 0.492
ARHGEF2 log2FC (Gene 9181): -0.509
DEDD log2FC (Gene 9191): -0.033
AURKB log2FC (Gene 9212): -0.231
FAIM3 log2FC (Gene 9214): -0.530
DLG5 log2FC (Gene 9231): -0.212
PNMA1 log2FC (Gene 9240): 0.459
NOG log2FC (Gene 9241): -0.308
CRLF1 log2FC (Gene 9244): 0.144
STK17B log2FC (Gene 9262): 0.429
STK17A log2FC (Gene 9263): 0.011
BCL7C log2FC (Gene 9274): -0.197
TAOK2 log2FC (Gene 9344): -0.249
SLIT2 log2FC (Gene 9353): 0.341
SLC9A3R1 log2FC (Gene 9368): -0.528
TJP2 log2FC (Gene 9414): 0.196
NTN1 log2FC (Gene 9423): -0.198
ITM2B log2FC (Gene 9445): 0.317
AIM2 log2FC (Gene 9447): -0.062
LY86 log2FC (Gene 9450): -0.203
EIF2AK3 log2FC (Gene 9451): 0.495
HAND2 log2FC (Gene 9464): -0.691
ATG5 log2FC (Gene 9474): -0.728
ROCK2 log2FC (Gene 9475): 0.195
MAPK8IP1 log2FC (Gene 9479): 0.085
SLC25A27 log2FC (Gene 9481): -0.081
PSMF1 log2FC (Gene 9491): -0.344
LITAF log2FC (Gene 9516): -0.833
EEF1E1 log2FC (Gene 9521): 0.110
BAG4 log2FC (Gene 9530): 0.152
BAG3 log2FC (Gene 9531): -0.812
EI24 log2FC (Gene 9538): -0.583
BCAR1 log2FC (Gene 9564): -0.480
BRE log2FC (Gene 9577): -0.205
RNF7 log2FC (Gene 9616): -0.244
TRAF4 log2FC (Gene 9618): -0.924
AATK log2FC (Gene 9625): 1.492
IKBKE log2FC (Gene 9641): -0.667
PPM1F log2FC (Gene 9647): -0.302
RAPGEF2 log2FC (Gene 9693): 0.948
ESPL1 log2FC (Gene 9700): 0.721
HERPUD1 log2FC (Gene 9709): 0.170
SLK log2FC (Gene 9748): 0.857
BCLAF1 log2FC (Gene 9774): 0.632
KIAA0141 log2FC (Gene 9812): 0.468
RB1CC1 log2FC (Gene 9821): 1.484
ARHGEF11 log2FC (Gene 9826): -0.060
ARHGEF17 log2FC (Gene 9828): 0.506
MELK log2FC (Gene 9833): 0.254
PSMD6 log2FC (Gene 9861): 0.158
ARNT2 log2FC (Gene 9915): 0.025
THOC1 log2FC (Gene 9984): 0.375
CASP8AP2 log2FC (Gene 9994): 0.614
SRA1 log2FC (Gene 10011): -0.916
PDCD6IP log2FC (Gene 10015): 0.603
PDCD6 log2FC (Gene 10016): -0.491
BCL2L11 log2FC (Gene 10018): 0.088
PARP2 log2FC (Gene 10038): 0.326
DNAJB6 log2FC (Gene 10049): 0.183
DNM1L log2FC (Gene 10059): 0.444
PDCD7 log2FC (Gene 10081): 0.098
PPIF log2FC (Gene 10105): -1.136
FEM1B log2FC (Gene 10116): -0.374
BCAP31 log2FC (Gene 10134): -0.357
RBM5 log2FC (Gene 10181): 0.638
RNF41 log2FC (Gene 10193): 0.278
PSME3 log2FC (Gene 10197): -1.222
DHRS2 log2FC (Gene 10202): 0.281
TOPORS log2FC (Gene 10210): 0.598
PSMD14 log2FC (Gene 10213): 0.153
SPRY2 log2FC (Gene 10253): -0.930
NET1 log2FC (Gene 10276): 0.503
UBE4B log2FC (Gene 10277): -0.565
SAP18 log2FC (Gene 10284): 0.198
TRAIP log2FC (Gene 10293): 0.566
MAEA log2FC (Gene 10296): -0.106
PAK4 log2FC (Gene 10298): -0.420
RTN3 log2FC (Gene 10313): -0.192
CITED2 log2FC (Gene 10370): 2.312
SEMA3A log2FC (Gene 10371): 0.050
DLC1 log2FC (Gene 10395): -1.010
GNB2L1 log2FC (Gene 10399): -0.033
YAP1 log2FC (Gene 10413): 0.172
CFDP1 log2FC (Gene 10428): 0.411
C1D log2FC (Gene 10438): 0.246
ACAA2 log2FC (Gene 10449): 0.115
VAV3 log2FC (Gene 10451): 2.272
STK25 log2FC (Gene 10494): 0.213
SEMA4D log2FC (Gene 10507): 0.274
MYBBP1A log2FC (Gene 10514): -0.303
CIB1 log2FC (Gene 10519): -0.082
ATG7 log2FC (Gene 10533): -0.414
HTATIP2 log2FC (Gene 10553): 0.204
ERN2 log2FC (Gene 10595): -0.680
RBCK1 log2FC (Gene 10616): -0.315
STAMBP log2FC (Gene 10617): 0.275
IVNS1ABP log2FC (Gene 10625): 0.167
TXNIP log2FC (Gene 10628): 2.206
RRAGA log2FC (Gene 10670): -0.315
PNMA2 log2FC (Gene 10687): -0.058
CHL1 log2FC (Gene 10752): 0.036
NES log2FC (Gene 10763): -0.277
PLK2 log2FC (Gene 10769): -0.927
ZMYND11 log2FC (Gene 10771): 0.395
NEK6 log2FC (Gene 10783): -0.675
NCKAP1 log2FC (Gene 10787): 0.619
ZNF268 log2FC (Gene 10795): 0.176
PPP1R13L log2FC (Gene 10848): 0.642
LILRB1 log2FC (Gene 10859): -0.213
MRPS30 log2FC (Gene 10884): 0.033
PROKR1 log2FC (Gene 10887): -0.254
PPARGC1A log2FC (Gene 10891): 0.154
MALT1 log2FC (Gene 10892): -0.458
JTB log2FC (Gene 10899): -0.072
BLCAP log2FC (Gene 10904): -0.472
EDAR log2FC (Gene 10913): -0.571
RNPS1 log2FC (Gene 10921): -0.284
FASTK log2FC (Gene 10922): -0.187
PRDX3 log2FC (Gene 10935): 0.328
MLLT11 log2FC (Gene 10962): -0.868
YWHAQ log2FC (Gene 10971): 0.144
IL24 log2FC (Gene 11009): -0.212
RIPK3 log2FC (Gene 11035): -0.030
PIM2 log2FC (Gene 11040): -0.544
DIDO1 log2FC (Gene 11083): -0.398
FAF1 log2FC (Gene 11124): 0.215
CAPN10 log2FC (Gene 11132): -0.148
NISCH log2FC (Gene 11188): 0.538
CHEK2 log2FC (Gene 11200): 0.111
AKAP13 log2FC (Gene 11214): -0.354
DDX20 log2FC (Gene 11218): 0.280
PDCD10 log2FC (Gene 11235): 0.466
GABARAP log2FC (Gene 11337): 0.401
ATF5 log2FC (Gene 22809): -1.254
PHLDA1 log2FC (Gene 22822): -2.154
CARD8 log2FC (Gene 22900): 0.156
SNW1 log2FC (Gene 22938): 0.538
TRIM32 log2FC (Gene 22954): -0.315
ACIN1 log2FC (Gene 22985): -0.228
TRIM35 log2FC (Gene 23087): 0.205
KIF1B log2FC (Gene 23095): 0.163
PSME4 log2FC (Gene 23198): -0.072
ARHGEF9 log2FC (Gene 23229): 0.137
PACS2 log2FC (Gene 23241): -0.041
MCF2L log2FC (Gene 23263): 0.306
TRIM2 log2FC (Gene 23321): 0.862
ARHGEF12 log2FC (Gene 23365): 0.170
PPP1R13B log2FC (Gene 23368): 0.064
NCSTN log2FC (Gene 23385): 0.292
ADNP log2FC (Gene 23394): 0.175
SIRT1 log2FC (Gene 23411): 1.169
